Assay results from PubChem BioAssay AID1033 (Sanford-Burnham Center for Chemical Genomics, 2008).
Activity calls are given as the source filed them. The rule behind the calls is not given here.

Target: Chaperone protein DnaK (Escherichia coli (strain K12)) (UniProt P0A6Y8)
Test: binders of DnaK substrate-binding domain, biophysical, NMR, chaperone (AID 1033)
Settings: Purified DnaK SBD, NMR ligand binding

Chain of Chaperone protein DnaK (Escherichia coli (strain K12)) (P0A6Y8 whole entry, looked up, the tested form may be a part): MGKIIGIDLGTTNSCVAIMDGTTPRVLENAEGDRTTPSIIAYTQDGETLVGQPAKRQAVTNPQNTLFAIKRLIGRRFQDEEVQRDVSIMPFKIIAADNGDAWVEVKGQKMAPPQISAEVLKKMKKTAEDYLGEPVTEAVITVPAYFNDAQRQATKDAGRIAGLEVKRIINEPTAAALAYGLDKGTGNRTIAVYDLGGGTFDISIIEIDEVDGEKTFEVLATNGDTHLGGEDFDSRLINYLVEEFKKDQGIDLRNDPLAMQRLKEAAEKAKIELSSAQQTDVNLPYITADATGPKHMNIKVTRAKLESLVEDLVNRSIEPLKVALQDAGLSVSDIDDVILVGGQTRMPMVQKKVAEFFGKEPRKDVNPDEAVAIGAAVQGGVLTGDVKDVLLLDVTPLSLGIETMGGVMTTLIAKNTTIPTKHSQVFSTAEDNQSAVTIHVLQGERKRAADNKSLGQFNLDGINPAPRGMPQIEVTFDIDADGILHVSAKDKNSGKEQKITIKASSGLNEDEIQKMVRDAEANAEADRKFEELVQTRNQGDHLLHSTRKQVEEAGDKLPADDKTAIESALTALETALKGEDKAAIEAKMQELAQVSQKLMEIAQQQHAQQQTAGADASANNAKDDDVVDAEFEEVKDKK

## NC(=O)CCN1C(=O)c2ccccc2C1=O
  Kd: > 4 mM (inactive)

## CC(C)c1ccc2c(c1O)CC[C@H]1C3=C(CC[C@]21C)C(=O)OC3
  Kd: > 4 mM (inactive)

## NC(=O)CSc1nc2ccccc2c(=O)[nH]1
  Kd: > 4 mM (inactive)

## Cn1c(=O)c2c(ncn2CCNC2=NCCC2)n(C)c1=O
  Kd: > 4 mM (inactive)

## CCCCCC1C(=O)CCC1CC(=O)OC (configuration not stated)
  Kd: > 4 mM (inactive)

## CSc1ncnc2nc[nH]c12
  Kd: > 4 mM (inactive)

## COc1nc(C#N)c(N2CCOCC2)o1
  Kd: > 4 mM (inactive)

## Cc1cc(=O)cc(C)n1NC(N)=S
  Kd: > 4 mM (inactive)

## Cc1oc(S(=O)(=O)N2CCCCC2)cc1C(=O)O
  Kd: > 4 mM (inactive)

## c1ccc(-c2n[nH]c(-c3ccccn3)n2)nc1
  Kd: > 4 mM (inactive)

## Cc1cc(C(=O)Nc2sc3c(c2C#N)CCC3)no1
  Kd: > 4 mM (inactive)

## COCC(=O)N1CCCc2ccccc21
  Kd: > 4 mM (inactive)

## Cc1ccc(CCC(N)=O)o1
  Kd: > 4 mM (inactive)

## Cc1nnc(SCC(N)=O)c2ccccc12
  Kd: > 4 mM (inactive)

## CNC(=O)c1cc(S(=O)(=O)N(C)C)ccc1Cl
  Kd: > 4 mM (inactive)

## Cc1c(-c2ccccc2)[n+](=O)c(-c2ccco2)c(C)n1[O-]
  Kd: > 4 mM (inactive)

## CCc1c(C)[nH]c(=S)c(C(N)=O)c1C
  Kd: > 4 mM (inactive)

## CC(=O)Oc1ccc(-c2nc(-c3cccnc3)no2)cc1
  Kd: > 4 mM (inactive)

## COC(=O)c1cccnc1Oc1ccccc1
  Kd: > 4 mM (inactive)

## O=C(/C=C(\O)c1ccccc1)c1ccccc1O
  Kd: > 4 mM (inactive)

## Fc1cccc(F)c1CN1CCN(c2ncccn2)CC1
  Kd: > 4 mM (inactive)

## O=C(O)c1ccc2[nH]c3c(c2c1)CSCC3
  Kd: > 4 mM (inactive)

## CCC(=O)NC(=S)Nc1ccc(C(N)=O)cc1
  Kd: > 4 mM (inactive)

## COn1c(=O)c(-c2ccco2)[n+]([O-])c2ccccc21
  Kd: > 4 mM (inactive)

## CC(=O)c1cnc(Nc2nc(C)c3ccccc3n2)nc1C
  Kd: > 4 mM (inactive)

## Cc1sc2nc3n(c(=O)c2c1C)CCCS3
  Kd: > 4 mM (inactive)

## Cc1nnc(N2CCc3ccccc3C2)[nH]c1=O
  Kd: > 4 mM (inactive)

## C=C[C@H]1CN2CC[C@H]1C[C@H]2[C@H](O)c1ccnc2ccccc12
  Kd: > 4 mM (inactive)

## COC(=O)CC1=Nc2ccccc2NC(=O)C1
  Kd: > 4 mM (inactive)

## COC(=O)c1ccc(Cl)c(NC(C)=O)c1
  Kd: > 4 mM (inactive)

## COc1cc(OC)c2c(=O)c(-c3ccc4c(c3)OCO4)coc2c1
  Kd: > 4 mM (inactive)

## C(=C\c1ccccc1)/C=N/n1cnnc1
  Kd: > 4 mM (inactive)

## O=c1cc(-c2ccc(O)cc2)oc2cc(O[C@@H]3O[C@H](CO)[C@@H](O)[C@H](O)[C@H]3O[C@@H]3OC[C@](O)(CO)[C@H]3O)cc(O)c12
  Kd: > 4 mM (inactive)

## COc1c(O)cc2c(c1O)[C@H]1O[C@H](CO)[C@@H](O)[C@H](O)[C@@H]1OC2=O
  Kd: > 4 mM (inactive)

## CCOC(=O)C1=C(O)CCN(C)C1
  Kd: > 4 mM (inactive)

## COc1ccccc1NC(=O)c1cc[n+]([O-])cc1
  Kd: > 4 mM (inactive)

## C[n+]1ccn(C/C(N)=N/O)c1
  Kd: > 4 mM (inactive)

## CC(NC(=O)C1CCCCC1)C(=O)NC1=NCCS1 (configuration not stated)
  Kd: > 4 mM (inactive)

## CCCCN1C(=O)N(C)C2NC(=O)NC21 (configuration not stated)
  Kd: > 4 mM (inactive)

## CC1(NC(=O)NCc2ccccc2)CCS(=O)(=O)C1 (configuration not stated)
  Kd: > 4 mM (inactive)

## CC(=O)Nc1cc(C(N)=O)cc(C(N)=O)c1
  Kd: > 4 mM (inactive)

## O=C(O)c1cccc2nsnc12
  Kd: > 4 mM (inactive)

## O=C(c1ccccc1)c1cncc(Br)c1
  Kd: > 4 mM (inactive)

## CNc1nc(N)c(C(=O)C(C)(C)C)s1
  Kd: > 4 mM (inactive)

## OC1CCN(c2nccc(C(F)(F)F)n2)CC1
  Kd: > 4 mM (inactive)

## Nc1ccc2c(c1)S(=O)(=O)C=C2
  Kd: > 4 mM (inactive)

## CC(=O)Nc1cccc(-c2n[nH]c(=S)n2C)c1
  Kd: > 4 mM (inactive)

## Nc1ccc2sccc2c1
  Kd: > 4 mM (inactive)

## Cc1ccccc1NC(=O)C1CCC(=O)N1 (configuration not stated)
  Kd: > 4 mM (inactive)

## Cc1oc(-c2ccccc2)nc1CC(=O)O
  Kd: > 4 mM (inactive)

## NC(=O)CC1Nc2cccc3cccc(c23)NC1=O (configuration not stated)
  Kd: > 4 mM (inactive)

## O=C(CS(=O)(=O)c1ccccc1)Nc1nccs1
  Kd: > 4 mM (inactive)

## CC(=O)O[C@H]1C[C@@H](OC(C)=O)C(C)(C)C2C[C@@H](OC(C)=O)[C@]3(C)C(CC[C@@]4(C)[C@H](c5ccoc5)OC(=O)[C@H]5O[C@]543)[C@]21C (some centres not stated)
  Kd: > 4 mM (inactive)

## Cn1c(=O)n(C)c2nc([N+](=O)[O-])c(Cl)cc21
  Kd: > 4 mM (inactive)

## Cc1cc(S(=O)(=O)N2CCOCC2)ccc1F
  Kd: > 4 mM (inactive)

## O=C(CCc1ccc(O)cc1)c1c(O)cc(O)cc1O[C@@H]1O[C@H](CO)[C@@H](O)[C@H](O)[C@H]1O
  Kd: > 4 mM (inactive)

## CC(CO)NC(=O)C1C=C2c3cccc4[nH]cc(c34)C[C@H]2N(C)C1 (some centres not stated)
  Kd: > 4 mM (inactive)

## Nc1cccc(OC(F)(F)F)c1
  Kd: > 4 mM (inactive)

## Cc1cc(C(=O)c2c(C)nn(C)c2Cl)n(C)n1
  Kd: > 4 mM (inactive)

## COC(=O)CCSCC(=O)Nc1nnc(C)s1
  Kd: > 4 mM (inactive)

## CC(=O)c1cc(C)ccc1OC(=O)c1cccnc1
  Kd: > 4 mM (inactive)

## CC(=O)Nc1cnn(Cc2ccc(Br)cc2)c1
  Kd: > 4 mM (inactive)

## CC1(C)C=Cc2cc3ccc(=O)oc3cc2O1
  Kd: > 4 mM (inactive)

## c1ccc(-c2nnc3sc(-c4ccncc4)nn23)cc1
  Kd: > 4 mM (inactive)

## NC(N)=NCCCCN=C(N)N
  Kd: > 4 mM (inactive)

## CN(C)C(=O)Nc1ccc2c(c1)nnn2C
  Kd: > 4 mM (inactive)

## COC1=C(OC)C(=O)C(C/C=C(\C)CC/C=C(\C)CC/C=C(\C)CC/C=C(/C)CC/C=C(\C)CC/C=C(\C)CC/C=C(\C)CC/C=C(\C)CC/C=C(\C)CCC=C(C)C)=C(C)C1=O
  Kd: > 4 mM (inactive)

## CC(=O)Nc1ccc(N2CCOCC2)cc1
  Kd: > 4 mM (inactive)

## O=C(NCc1ccco1)c1ccc(Br)s1
  Kd: > 4 mM (inactive)

## Cc1c(/C=N/O)cnn1C
  Kd: > 4 mM (inactive)

## Nc1cccc(F)c1-c1ncon1
  Kd: > 4 mM (inactive)

## CC(CC(=O)NN)C1(O)CCCCC1 (configuration not stated)
  Kd: > 4 mM (inactive)

## CC(C)(C(N)=O)/[N+]([O-])=C\c1ccccc1
  Kd: > 4 mM (inactive)

## CC(=O)O[C@H]1CC[C@@]2(C)C(CC[C@]3(C)C2C(=O)C=C2C4[C@@H](C)[C@H](C)CC[C@]4(C(=O)O)CC[C@]23C)C1(C)C (some centres not stated)
  Kd: > 4 mM (inactive)

## CCC(C)C(=O)O[C@@H]1C[C@@]2(C)[C@H](c3ccoc3)OC(=O)CC23OC2(C)OC34[C@H](OC(=O)C(C)C)[C@@]3(O)[C@@H](OC(=O)C5(C)OC5C)[C@@]5(C)C[C@]3(O)[C@@](C)([C@H]5CC(=O)OC)C14O2 (some centres not stated)
  Kd: > 4 mM (inactive)

## O=[n+]1cc(-c2ccccc2)n([O-])c2c1CCC2
  Kd: > 4 mM (inactive)

## Cc1ccc2[nH]cc(CCN)c2c1
  Kd: > 4 mM (inactive)

## OCCCc1nc2ccc(C(F)(F)F)cc2[nH]1
  Kd: > 4 mM (inactive)

## O=C(c1cnsn1)N1CCN(c2ccccn2)CC1
  Kd: > 4 mM (inactive)

## Nc1ccc(Oc2ccccc2)nc1
  Kd: > 4 mM (inactive)

## O=c1c(O)c(-c2ccccc2)oc2ccccc12
  Kd: > 4 mM (inactive)

## CCCNC(=O)c1cnc2n(c1=O)CCS2
  Kd: > 4 mM (inactive)

## O=C(O)C1Cc2c([nH]c3ccccc23)CN1 (configuration not stated)
  Kd: > 4 mM (inactive)

## O=C1Cn2c(nc3ccccc32)N1c1ccccc1F
  Kd: > 4 mM (inactive)

## COc1ccc2nc(SCC(N)=O)[nH]c2c1
  Kd: > 4 mM (inactive)

## Cc1cc(C(=O)Nc2ccc3c(c2)OCO3)cs1
  Kd: > 4 mM (inactive)

## CCOC(=O)c1[nH]c(C)cc1C
  Kd: > 4 mM (inactive)

## O=C1CNCc2[nH]c3ccccc3c2N1c1ccccc1
  Kd: > 4 mM (inactive)

## Cc1nnc(SCc2cccs2)[nH]c1=O
  Kd: > 4 mM (inactive)

## OCC(O)C(O)C(O)CO (configuration not stated)
  Kd: > 4 mM (inactive)

## COc1cc(C)c2c(c1C=O)Oc1c(c(C)c(O)c3c1C(O)OC3=O)OC2=O (configuration not stated)
  Kd: > 4 mM (inactive)

## CCC(=O)Nc1ccc(-c2nn3c(C)nnc3s2)cc1
  Kd: > 4 mM (inactive)

## C[C@@H]1CC[C@@]23CCC4(C)[C@@](C=CC5[C@@]6(C)CCC(=O)C(C)(C)C6CC[C@]54C)(OC2=O)C3[C@H]1C (some centres not stated)
  Kd: > 4 mM (inactive)

## Cc1ccc2nc(SCC(=O)O)nc(C)c2c1
  Kd: > 4 mM (inactive)

## O=C(NCCO)NC(=S)c1ccccc1
  Kd: > 4 mM (inactive)

## Cc1cc(C(=O)N2CCN(c3ncccn3)CC2)c(C)o1
  Kd: > 4 mM (inactive)

## Cc1ccc(-c2nc(-c3cccnc3)no2)cc1
  Kd: > 4 mM (inactive)

## c1cncc(Nc2nc(-c3cccnc3)cs2)c1
  Kd: > 4 mM (inactive)

## COC(=O)c1[nH]c2ccccc2c1C(=O)OC
  Kd: > 4 mM (inactive)

## CC(CC(=O)O)n1cccn1 (configuration not stated)
  Kd: > 4 mM (inactive)

## NC(=O)CC1Sc2ccccc2NC1=O (configuration not stated)
  Kd: > 4 mM (inactive)

## NC1Cc2ccccc2C1
  Kd: > 4 mM (inactive)

## CCc1nnc(NC(C)=O)s1
  Kd: > 4 mM (inactive)

## CSc1nc(NC(C)C)nc(N2CCOCC2)n1
  Kd: > 4 mM (inactive)

## O=C(O)C1CSC(c2cccnc2)N1 (configuration not stated)
  Kd: > 4 mM (inactive)

## Oc1cccc(N2CCOCC2)c1
  Kd: > 4 mM (inactive)

## CCOC(=O)c1ccc(Oc2ccc(C)nn2)cc1
  Kd: > 4 mM (inactive)

## Cn1cnc([N+](=O)[O-])c1Sc1ncnc2nc[nH]c12
  Kd: > 4 mM (inactive)

## O=c1cccc2n1CC1CC2CN2CCCC[C@@H]12 (some centres not stated)
  Kd: > 4 mM (inactive)

## COc1cc(C)c(Cl)cc1S(=O)(=O)N(C)C
  Kd: > 4 mM (inactive)

## C=C[C@@](C)(O)CCC1C(=C)CCC2[C@@](C)(CO)CCC[C@]12C (some centres not stated)
  Kd: > 4 mM (inactive)

## COc1cc(-c2coc3cc(O[C@@H]4O[C@H](CO)[C@@H](O)[C@H](O)[C@H]4O)c(OC)c(O)c3c2=O)cc(O)c1OC
  Kd: > 4 mM (inactive)
